# Where “and” joins values, the source holds several entries; their conditions need not be identical. Identical values can stand only once.
# B1: Wnt11: noncanonical Wnt ligand; recombinant protein, R&D Systems 6179-WN-010 (protein, UniProt O96014 25-354, looked up)
# Protein Wnt-11: IKWLALSKTPSALALNQTQHCKQLEGLVSAQVQLCRSNLELMHTVVHAAREVMKACRRAFADMRWNCSSIELAPNYLLDLERGTRESAFVYALSAAAISHAIARACTSGDLPGCSCGPVPGEPPGPGNRWGGCADNLSYGLLMGAKFSDAPMKVKKTGSQANKLMRLHNSEVGRQALRASLEMKCKCHGVSGSCSIRTCWKGLQELQDVAADLKTRYLSATKVVHRPMGTRKHLVPKDLDIRPVKDSELVYLQSSPDFCMKNEKVGSHGTQDRQCNKTSNGSDSCDLMCCGRGYNPYTDRVVERCHCKYHWCCYVTCRRCERTVERYVCK
# What was measured:
# Format in all cases: cell-based
# [1] = tested on: mouse intestinal organoids; assay: cystic organoid percentage, organoids in conditioned media (SCM/QCM) with or without inhibitors or antibodies; details: SCM-exposed organoids
# Method: Twenty-four hours before collecting conditioned media (CM), MEFs were washed with serum-free DMEM twice, and serum-free DMEM was added. After 24 h in serum-free DMEM, this CM was collected, filtered using Steriflip filters (Millipore, #SE1M179M6) to remove cell debris, and concentrated using centrifugal filter units (Amicon ultra-15 centricon; Millipore, # UFC900324). […] CM was filtered and dialyzed for 24–48 h to remove the inhibitors before concentration.
# (§1) The jejunum part of the small intestine was removed, flushed with PBS, opened longitudinally, then cut into 0.5 cm pieces. The collected tissues were washed with ice cold PBS multiple times by vortexing and incubated in PBS containing 2.5 mM EDTA for 5 min at 37 °C. After gentle shaking and aspiration, tissues were incubated in PBS containing 5 mM EDTA for 7 min at 37 °C. Tissues were then washed with PBS to remove EDTA and vigorously shaken to release crypts. The released crypts were passed through 70 μm strainers, washed with PBS, and pelleted by centrifugation at 200 × g.
# (§2) 3-4 biological replicates of organoids from different mice were used per condition. Organoids were cultured in the indicated media, inhibitors, antibodies and/or recombinant proteins for 5 d and fixed in 4% formaldehyde in PBS. Organoids were imaged with a 4× Plan Fluor objective (NA: 0.13, Nikon) on a Nikon Ti-E inverted microscope equipped with a Neo scMOS camera (Andor, Oxford Instruments), a linear encoded automated stage (Applied Scientific Instrumentation), all run by NIS Elements software (Nikon). Organoids were imaged in brightfield and images covering the whole well were stitched and focused into one image projection with an extended depth of focus module (EDF; Nikon). One hundred to 200 organoids per replicate per condition were counted and used for quantification. The number of budding organoids in each condition was normalized by the number of budding organoids in untreated or DMSO treated controls to calculate cystic organoid percentage:1 Cysticorganoidpercentage=100×1−Numberofbuddingorganoidsfromexperiment/Numberofbuddingorganoidsfromcontrol
# [2] = tested on: mouse intestinal organoids; assay: inhibition of Wnt5a-induced cystic organoids; details: Wnt5a-treated organoids
# Method: as §1, with “g. Resuspended crypts were mixed with Matrigel (Corning, #356231; Lot#8218007) and pipetted into culture plates. After mixture of crypts and Matrigel solidified, IntestiCult Organoid Growth Medium (Stem Cell Technologies, #06005; Lots #1000021927, #1000034230, #1000037372) was added. Seven days after seeding, organoids were resuspended in dissociation buffer (Gentle Cell Dissociation Reagent; Stem Cell Technologies, #07174), dissociated by pipetting, and seeded for experiments.” for “g.”
# as §2
# [3] = tested on: YAP in mouse intestinal organoids; assay: whole mount immunostaining for YAP nuclear localization
# Method: For whole mount staining, freshly passaged crypts were mixed with Matrigel (Corning, #356231) and mounted to µ-Slide 8 well chamber slides (ibidi, #80826). Media were changed every 2–3 d. 5 days later, organoids in the chamber slides were then fixed in 4% formaldehyde in PBS for 30 min, permeabilized with 0.5% Triton X-100 for 1 h, and incubated in blocking solution (3% normal donkey serum (Sigma-Aldrich, #566460) and 5% BSA (Sigma-Aldrich, #A7979) in 0.1% Triton X-100 + PBS) for 1 h. Primary and secondary antibodies were diluted in blocking solution and added to fixed organoids. Organoids were incubated with primary antibodies overnight at 4 °C and with secondary antibodies for 2 h. ProLong Diamond Antifade Mountant (Invitrogen, # P36970) was added. Images were acquired with a Yokogawa CSU-W1/Zeiss 3i Marianas spinning disk confocal microscopy system. For each organoid, Z-planes up to 100 μm with 1 or 1.5 μm z-steps were acquired to quantify the number of cell types.
# [4] = tested on: β-Catenin-dependent Wnt signaling (HEK293-TB cells); assay: TOPbrite dual-luciferase Wnt reporter assay; details: SF.3e
# Method: Generation of HEK293 cells stably expressing a TOPbrite firefly luciferase Wnt reporter and pRL-SV40 Renilla luciferase (HEK293-TB) was previously described. HEK293-TB cells were maintained in DMEM/F12 (50:50), supplemented with 10% FBS, 2 mM Glutamax (Gibco, #35050-061) and 40 μg/ml hygromycin (Cellgro, #30-240-CR). For the luciferase reporter assay, HEK293-TB cells were seeded in 96-well plates (Falcon, #353377). The next day, cells were treated with indicated Wnt ligands (50 ng/ml) or CM diluted in culture media. After 24 h, the firefly and Renilla luciferase activity was measured using Dual-Glo Luciferase Assay system (Promega, #E2940) on a Perkin Elmer EnVision multilabel reader. The ratios of firefly luminescence to Renilla luminescence were calculated and normalized to control samples that were not treated.
# [5] = tested on: cytosolic Ca2+ in mouse intestinal organoids; assay: live Ca2+ imaging of mouse intestinal organoids (GCaMP6f/tdTomato: baselined area under curve, peak number, height, width); details: live organoids expressing GCaMP6f
# Method: Z stacks were acquired every 10 s.
# Z-stack images were converted to mean intensity projections and, where required; background was subtracted using a rolling ball algorithm. Segmentation was conducted on a max-projection over-time of the GCaMP6f channel using Cellpose’s pre-trained “Cytoplasm” classifier. Mean intensity traces were measured in each ROI over the time course in both the GCaMP6f and TdTomato channels using scikit-image[138]. Ca^2+ oscillation patterns were calculated in an unsupervised, automated manner using MATLAB. Mean intensity traces were smoothed using a Savitzky-Golay filter and peaks were identified using the “findpeaks” algorithm from the MATLAB Signal Processing Toolbox. Graphs for GCaMP6f/tdTomato fluorescence ratio, peak numbers, peak height, peak width and baselined area under the curve were generated using Python matplotlib and seaborn packages. Statistical analysis was performed using Python SciPy and scikit-post-hoc packages.
# [6] = tested on: mouse intestinal organoids; assay: cystic organoid percentage, organoids treated with recombinant Wnt ligands (Wnt3a, Wnt5a, Wnt11); details: for percentage of cystic organoids: Fig. 4e, individual mice, n = 3; for induction of cystic organoids: recombinant Wnt ligand added to crypt cultures; for cystic organoid percentage: SF.3p, Untreated = 0
# Method: as §1, with “g. Resuspended crypts were mixed with Matrigel (Corning, #356231; Lot#8218007) and pipetted into culture plates. After mixture of crypts and Matrigel solidified, IntestiCult Organoid Growth Medium (Stem Cell Technologies, #06005; Lots #1000021927, #1000034230, #1000037372) was added. Seven days after seeding, organoids were resuspended in dissociation buffer (Gentle Cell Dissociation Reagent; Stem Cell Technologies, #07174), dissociated by pipetting, and seeded for experiments.” for “g.”
# as §2
# [7] = tested on: mouse intestinal organoids; assay: cystic organoid percentage, co-culture with quiescent or senescent intestinal fibroblasts; set-up: key: % = 100×(1 − budding organoids treated/budding organoids control); details: relative to DMSO = 0
# Method: as §2
# Mouse intestinal fibroblasts were purchased from Cell Biologics (#C57-6231) and cultured in Complete Fibroblast Medium (Cell Biologics, M2267) at 37 °C and 5% CO2. Cellular quiescence and senescence in mouse intestinal fibroblasts were induced by the similar methods described earlier for MEFs with minor modifications. Briefly, cellular quiescence was induced by culturing the fibroblasts in low serum (0.5% FBS), and cellular senescence was induced by 500 nM doxorubicin treatment for 5 days (doxorubicin; Sigma-Aldrich, #44583). Once cellular quiescence or senescence was induced, MEFs were maintained at 37 °C, 5% CO2, and 3% O2 for another 5 days. The quiescent or senescent fibroblasts were dissociated using 0.05% Trypsin-EDTA (Gibco, #25300-054) and counted for seeding. The same number of quiescent and senescent fibroblasts (5.2 × 10^4 cells) were mixed with intestinal organoids making total volume of 20 μl of Matrigel: organoid culture media mix, which was mounted on a 48 well plate.
molecule,measurement,setting,value
"CN1CCN(CCCN2c3ccccc3Sc3ccc(C(F)(F)F)cc32)CC1 [TFP, Trifluoperazine]",effect on cystic organoid phenotype,[1],reduced the percentage of cystic organoids
same,effect on Wnt5a-induced cystic organoid phenotype,[2],reduced the percentage of cystic organoids
same,effect on nuclear localization of YAP,[3],reversed SCM- or Wnt5a-induced nuclear translocation of YAP
Wnt3a [reference compound],TOPbrite dual-luciferase Wnt reporter activity,[4]; replicate 1,83.0786
same,TOPbrite dual-luciferase Wnt reporter activity,[4]; replicate 2,67.4901
same,TOPbrite dual-luciferase Wnt reporter activity,[4]; replicate 3,77.6835
same,TOPbrite dual-luciferase Wnt reporter activity,[4]; replicate 4,73.6039
same,effect on cytosolic Ca2+ levels and oscillations,[5],decreased cytosolic Ca^2+ levels
same,percentage of cystic organoids,[6]; Wnt3a 25 ng/ml,7.495% and 3.142% and 6.766%
same,percentage of cystic organoids,[6]; Wnt3a 50 ng/ml,18.7879% and 6.422% and 6.8556%
same,percentage of cystic organoids,[6]; Wnt3a 100 ng/ml,13.092% and 2.902% and 16.5461%
same,percentage of cystic organoids,[6]; Wnt3a 250 ng/ml,21.7379% and 11.3578% and 13.1232%
same,percentage of cystic organoids,[6]; Wnt3a 500 ng/ml,37.371% and 19.4444% and 31.0445%
same,induction of cystic organoids,[6],dose-dependently increased organoids with cystic morphology
O=C(O)c1ccc2c3c1cccc3c(=O)n1c3ccccc3nc21 [STO-609],effect on cystic organoid phenotype,[1],suppressed the cystic organoid phenotype
same,effect on nuclear localization of YAP,[3],reversed SCM- or Wnt5a-induced nuclear translocation of YAP
CN([C@@H](Cc1ccc(OS(=O)(=O)c2cccc3cnccc23)cc1)C(=O)N1CCN(c2ccccc2)CC1)S(=O)(=O)c1cccc2cnccc12 [KN-62],effect on cystic organoid phenotype,[1],suppressed the cystic organoid phenotype
same,effect on nuclear localization of YAP,[3],reversed SCM- or Wnt5a-induced nuclear translocation of YAP
cyclosporin A,effect on cystic organoid phenotype,[1],had no effect on this phenotype
same,cystic organoids (sheet SF.5d),"[7]; 1 uM CsA, no fibroblasts, replicate 1",-0.1051
same,cystic organoids (sheet SF.5d),"[7]; 1 uM CsA, no fibroblasts, replicate 2",-6.5368
same,cystic organoids (sheet SF.5d),"[7]; 1 uM CsA, no fibroblasts, replicate 3",5.663
same,cystic organoids (sheet SF.5d),"[7]; Q + 1um CsA (quiescent fibroblasts), replicate 1",19.8791
same,cystic organoids (sheet SF.5d),"[7]; Q + 1um CsA (quiescent fibroblasts), replicate 2",16.6126
same,cystic organoids (sheet SF.5d),"[7]; Q + 1um CsA (quiescent fibroblasts), replicate 3",9.858
same,cystic organoids (sheet SF.5d),"[7]; SEN + 1uM CsA (senescent fibroblasts), replicate 1",45.7387
same,cystic organoids (sheet SF.5d),"[7]; SEN + 1uM CsA (senescent fibroblasts), replicate 2",66.7022
same,cystic organoids (sheet SF.5d),"[7]; SEN + 1uM CsA (senescent fibroblasts), replicate 3",42.5108
B1,TOPbrite dual-luciferase Wnt reporter activity,[4]; replicate 1,0.9689
same,TOPbrite dual-luciferase Wnt reporter activity,[4]; replicate 2,1.428
same,TOPbrite dual-luciferase Wnt reporter activity,[4]; replicate 3,1.229
same,TOPbrite dual-luciferase Wnt reporter activity,[4]; replicate 4,1.621
same,cystic organoid percentage,"[6]; 25ng/ml, replicate 1",1.8358
same,cystic organoid percentage,"[6]; 25ng/ml, replicate 2",-0.2717
same,cystic organoid percentage,"[6]; 25ng/ml, replicate 3",-1.279
same,cystic organoid percentage,"[6]; 50ng/ml, replicate 1",-0.06739
same,cystic organoid percentage,"[6]; 50ng/ml, replicate 2",-5.163
same,cystic organoid percentage,"[6]; 50ng/ml, replicate 3",1.176
same,cystic organoid percentage,"[6]; 100ng/ml, replicate 1",-0.2558
same,cystic organoid percentage,"[6]; 100ng/ml, replicate 2",-1.25
same,cystic organoid percentage,"[6]; 100ng/ml, replicate 3",2.262
same,cystic organoid percentage,"[6]; 250 ng/ml, replicate 1",2.331
same,cystic organoid percentage,"[6]; 250 ng/ml, replicate 2",-7.143
same,cystic organoid percentage,"[6]; 250 ng/ml, replicate 3",1.176
same,cystic organoid percentage,"[6]; 500ng/ml, replicate 1",2.331
same,cystic organoid percentage,"[6]; 500ng/ml, replicate 2",-1.6129
same,cystic organoid percentage,"[6]; 500ng/ml, replicate 3",1.42
same,cystic organoid percentage,"[6]; 1ug/ml, replicate 1",2.516
same,cystic organoid percentage,"[6]; 1ug/ml, replicate 3",-0.8403
same,induction of cystic organoids,[6],failed to induced cystic organoids

# — article PMC9834240, “Senescent cells perturb intestinal stem cell differentiation through Ptk7 induced noncanonical Wnt and YAP signaling” (Nature Communications, 2023)
